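96-well plates; 48 h exposure; 5 concentrations. Endpoints by linear interpolation between flanking doses. Not reached: highest tested concentration assigned. At the GI50, growth is halved. The concentration for full growth arrest is given as TGI.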
Assays:
Assay in all cases: NCI-60 cell line screen, 48 h
UO-31 renal = system: UO-31 renal
NCI-H226 lung = system: NCI-H226 lung
786-0 renal = system: 786-0 renal
SK-OV-3 ovarian = system: SK-OV-3 ovarian
BT-549 breast = system: BT-549 breast
NCI-H522 lung = system: NCI-H522 lung
CAKI-1 renal = system: CAKI-1 renal
SK-MEL-2 melanoma = system: SK-MEL-2 melanoma
NCI-H23 lung = system: NCI-H23 lung
K-562 leukemia = system: K-562 leukemia

Compound	GI50 (UO-31 renal)	TGI (UO-31 renal)	GI50 (NCI-H226 lung)	TGI (NCI-H226 lung)	GI50 (786-0 renal)	TGI (786-0 renal)	GI50 (SK-OV-3 ovarian)	TGI (SK-OV-3 ovarian)	GI50 (BT-549 breast)	TGI (BT-549 breast)	GI50 (NCI-H522 lung)	TGI (NCI-H522 lung)	GI50 (CAKI-1 renal)	TGI (CAKI-1 renal)	GI50 (SK-MEL-2 melanoma)	TGI (SK-MEL-2 melanoma)	GI50 (NCI-H23 lung)	TGI (NCI-H23 lung)	TGI (K-562 leukemia)	GI50 (K-562 leukemia)
COc1ccccc1/C=C/C(=O)c1c(O)cc2occc2c1OC	> 100 µM	> 100 µM	25.1 µM	> 100 µM	35.3 µM	98.4 µM	21.3 µM	84.4 µM	28.2 µM	> 100 µM	> 100 µM	> 100 µM	> 100 µM	> 100 µM	> 100 µM	> 100 µM	22.4 µM	> 100 µM		
CCNCCC1(CC)C(=O)NC(=O)NC1=O		> 100 µM		> 100 µM		> 100 µM		> 100 µM		> 100 µM		> 100 µM		> 100 µM		> 100 µM		> 100 µM	> 100 µM	
NC(=NCCCC1(c2ccccc2)CCCC1)Nc1ccc(Cl)cc1	1.5 µM	3 µM			1.68 µM	3.13 µM	2.43 µM	5.59 µM	1.74 µM	3.27 µM	1.68 µM	3.32 µM	1.93 µM	3.94 µM	1.95 µM	3.52 µM	1.69 µM	3.35 µM	4.45 µM	1.55 µM
Cc1ccc2c(c1)C(C)Cc1c(ncnc1-n1cnc3cc(C)ccc31)N2C (stereo unspecified)	0.0729 µM	12.3 µM	0.0551 µM	22.8 µM	0.0371 µM	12.5 µM	0.0295 µM	1.09 µM	0.0281 µM	0.338 µM	0.026 µM	0.0784 µM	0.0407 µM	12.4 µM	0.0419 µM	15.8 µM	0.0567 µM	21.5 µM	16.5 µM	0.034 µM
O=C1/C=C/[C@@H](O)[C@@H]2C[C@@H](O)C[C@H]2/C=C/CCC[C@H](CCc2ccc(C(F)(F)F)cc2)O1	0.259 µM		0.0539 µM	0.513 µM	0.0826 µM	0.378 µM	0.279 µM	30.2 µM	0.355 µM	10.7 µM	0.282 µM	0.775 µM	0.312 µM	> 100 µM	0.349 µM	1.41 µM	0.236 µM	1.57 µM	> 100 µM	0.444 µM
COc1c2c3ccccc3nc-2n(C)c2ccccc12	29.1 µM	> 100 µM	6.77 µM	74.3 µM	6.54 µM	40.5 µM			18.8 µM	43.5 µM	49.2 µM	> 100 µM	19.2 µM	> 100 µM	36.8 µM	> 100 µM	11.7 µM	33.6 µM	> 100 µM	11.5 µM
CCN(CC)CC.CCOc1ccc(NC(=O)N=C=[N-])cc1.[CH-]1CCCCC1.[CH-]1CCCCC1.[CH-]1CCCCC1.[Cl-].[Sn+4]	0.0452 µM	0.0928 µM	0.0737 µM	0.183 µM	0.0157 µM	0.0372 µM	0.0466 µM	0.118 µM	0.149 µM	0.292 µM	0.0205 µM	0.0549 µM	0.0282 µM	0.0969 µM	0.0376 µM	0.0964 µM	0.0312 µM	0.0882 µM	0.463 µM	0.0171 µM
CC(C)CC1C(=O)N2CCC[C@H]2C2(O)O[C@](NC(=O)C3C=C4c5cccc6[nH]c(Br)c(c56)C[C@H]4N(C)C3)(C(C)C)C(=O)N12 (stereo partly specified)	2.02 µM	> 100 µM	11.3 µM	> 100 µM	25.7 µM	> 100 µM	9.66 µM	> 100 µM	11.7 µM	> 100 µM			2.81 µM	> 100 µM	22.6 µM	> 100 µM	8.22 µM	> 100 µM	> 100 µM	6.17 µM
COC(=O)[C@H]1C(=O)[C@@]2(C)[C@H]([C@H](OC(=O)c3ccccc3)[C@]3(O)C[C@H](OC(=O)[C@H](O)[C@@H](NC(=O)c4ccc(F)cc4)c4ccccc4)C(C)=C1C3(C)C)[C@]1(OC(C)=O)CO[C@@H]1C[C@@H]2O	1.89 µM	> 25 µM	0.612 µM	> 25 µM	0.0805 µM		0.0115 µM	> 25 µM	0.011 µM	0.833 µM	0.0135 µM	> 7.4 µM	0.12 µM	> 16.3 µM			0.0202 µM	> 25 µM		0.00917 µM
O=C(NCCc1ccccc1)C(c1ccccc1)(c1ccccc1)c1ccccc1	6.32 µM	43.4 µM			5.43 µM	> 100 µM	26 µM	> 100 µM	5.99 µM	44.9 µM	13.1 µM	38.1 µM	4.16 µM	26.1 µM	7.04 µM	29.8 µM			> 100 µM	44.9 µM
O=C(CSc1nc2ccccc2nc1-c1ccccc1)Nc1ccc(Cl)cc1	55.4 µM	> 100 µM	16.7 µM	51.1 µM	16 µM	32.3 µM	78.9 µM	> 100 µM	33.5 µM	> 100 µM	15.3 µM	74.3 µM	12.5 µM	38.1 µM	51.7 µM	> 100 µM	30.5 µM	> 100 µM		
COc1cc(-c2nc(NC(C)=O)sc2-c2ccnc(NCCNS(=O)(=O)c3ccccc3)n2)ccc1Cl	4.46 µM	> 100 µM	6.45 µM	> 100 µM	4.31 µM	> 100 µM	4.77 µM	> 100 µM	3.1 µM	> 100 µM	1.99 µM	8.72 µM			2.42 µM	6.23 µM	5 µM	> 100 µM	> 100 µM	3.87 µM
Cc1nnc(N=Nc2c(O)[nH]c3c(Cl)cc(Cl)cc23)n1N		> 100 µM		> 100 µM		> 100 µM		> 100 µM				> 100 µM		> 100 µM		> 100 µM		> 100 µM	> 100 µM	
O=C(Cc1nc2ccccc2s1)Nc1ccc(Cl)cc1		> 100 µM		> 100 µM		> 100 µM		> 100 µM				> 100 µM		> 100 µM		> 100 µM		> 100 µM	> 100 µM	
O=C(NCCO)c1cc2c(cn1)[nH]c1ccccc12		> 100 µM		> 100 µM		33.7 µM		> 100 µM				> 100 µM		> 100 µM		33.6 µM		> 100 µM	> 100 µM	
COc1cc2c(c(OC)c1O)-c1ccc(OC)c(=O)cc1[C@@H](NC(=O)C(F)(F)F)CC2		> 100 µM				> 100 µM		> 100 µM		> 100 µM		0.0665 µM		> 100 µM					> 100 µM	

Compound	GI50 (UO-31 renal)	TGI (UO-31 renal)	GI50 (NCI-H226 lung)	TGI (NCI-H226 lung)	GI50 (786-0 renal)	TGI (786-0 renal)	GI50 (SK-OV-3 ovarian)	TGI (SK-OV-3 ovarian)	GI50 (BT-549 breast)	TGI (BT-549 breast)	GI50 (NCI-H522 lung)	TGI (NCI-H522 lung)	GI50 (CAKI-1 renal)	TGI (CAKI-1 renal)	GI50 (SK-MEL-2 melanoma)	TGI (SK-MEL-2 melanoma)	GI50 (NCI-H23 lung)	TGI (NCI-H23 lung)	TGI (K-562 leukemia)	GI50 (K-562 leukemia)
CN(C)c1ncnc2c1Cc1ccccc1C(=O)N2C		> 100 µM		> 100 µM		> 100 µM		> 100 µM				> 100 µM		> 100 µM		> 100 µM		> 100 µM	> 100 µM	
Fc1ccc(-c2nn3c(CNc4ccccc4)nnc3s2)cc1	42.8 µM	> 100 µM	45.5 µM	> 100 µM	56.2 µM	> 100 µM			39.1 µM	> 100 µM	34.5 µM	> 100 µM	19.4 µM	49.2 µM			27.2 µM	> 100 µM	> 100 µM	41.6 µM
CO/[N+]([O-])=C\C(=O)N/C=C/C(=O)O		> 100 µM		> 100 µM		> 100 µM		> 100 µM		> 100 µM		> 100 µM		> 100 µM				> 100 µM	> 100 µM	
Cc1ccc(S(=O)(=O)Oc2ccc([N+](=O)[O-])cc2[N+](=O)[O-])cc1	2.48 µM	9.26 µM	10.6 µM	43.6 µM	3.83 µM	14.6 µM	9.4 µM	91.3 µM	5.41 µM	18 µM			2.03 µM	4.27 µM	4.31 µM	16.6 µM	6.15 µM	32.3 µM	> 100 µM	0.689 µM
CCOC(CCCNCCCn1c2c(c3cc(OC)c(OC)cc3c1=O)C(=O)c1cc3c(cc1-2)OCO3)OCC	5.82 µM	11.9 µM	3.43 µM	10.7 µM	4.35 µM	10.6 µM	6.47 µM	12.8 µM			5.34 µM	11.3 µM	1.43 µM	7.61 µM	7.59 µM	14.2 µM	5.65 µM	11.7 µM	11.5 µM	5.53 µM
CCCOc1ccc(-c2nc(-c3ccc(N=Cc4ccc(N(CCOS(C)(=O)=O)CCOS(C)(=O)=O)cc4C)cc3)cs2)cc1		48 µM		84.5 µM		26.5 µM		43.2 µM				4.99 µM		12.8 µM		50.9 µM		30.8 µM	> 100 µM	
COc1c2ccoc2cc2oc(=O)ccc12				> 100 µM		> 100 µM				> 100 µM		> 100 µM		> 100 µM		> 100 µM		> 100 µM	> 100 µM	
Cc1nc2ccccn2c1NC(=O)NNC(=S)Nc1ccc(Br)cc1	82.5 µM	> 100 µM	38.4 µM	> 100 µM	41.7 µM	> 100 µM	33 µM	82.8 µM	42.8 µM	> 100 µM	30.1 µM	79.1 µM	29.6 µM	> 100 µM	77.8 µM	> 100 µM			54.6 µM	21.8 µM
N.N.N.N.O=NN1CCCCCC1(P(=O)([O-])[O-])P(=O)([O-])[O-].[Pt+4].[Pt+4]	> 100 µM	> 100 µM	> 100 µM	> 100 µM	> 100 µM	> 100 µM	> 100 µM	> 100 µM			> 100 µM	> 100 µM	> 100 µM	> 100 µM	79.6 µM	> 100 µM	> 100 µM	> 100 µM	> 100 µM	> 100 µM
C[C@H]1CC[C@H]([C@@H](C)[C@H]2[C@@H](O)C[C@H]3[C@@H]4CC[C@H]5C[C@@H](O)CC[C@]5(C)[C@H]4CC[C@]23C)NC1		30.9 µM		39.5 µM		37.1 µM		31.7 µM		32.5 µM		30.8 µM		34.3 µM		46 µM		32.5 µM		
O=Nc1ccc(O)c2ccccc12	1.36 µM	3.37 µM	2.02 µM	4.3 µM	4.1 µM	12.6 µM	4.93 µM	16.3 µM	1.93 µM	3.35 µM	1.6 µM	3.48 µM	1.63 µM	4.03 µM	1.7 µM	3.72 µM	1.45 µM	4.17 µM		
O=Cc1ccc(-c2ccc(-c3nc4ccccc4[nH]3)cc2)s1			27.3 µM	82.3 µM	19 µM	62.2 µM			15.6 µM	52.4 µM	26.3 µM	> 100 µM	29.9 µM	57.2 µM	42 µM	> 100 µM	17.2 µM	35 µM	53 µM	17.7 µM
CCOC(=O)Cc1nc2ccccc2s1		29.7 µM		49.2 µM		32.9 µM		> 100 µM				41.1 µM		48.1 µM		36.5 µM		29.3 µM	71.9 µM	
CCN(CC)CCCC(C)Nc1cc(-c2ccc(C(F)(F)F)cc2)c(C#N)c2nc3ccccc3n12 (stereo unspecified)	1.41 µM	2.87 µM			1.51 µM	2.93 µM	2.22 µM	4.75 µM	1.6 µM	3.16 µM			2.89 µM	12.5 µM	2.27 µM	4.15 µM	1.86 µM	4.22 µM		
O=C1Nc2cc(Cl)ccc2N=CC1NC(=O)C(c1ccccc1)c1ccccc1Cl (stereo unspecified)		> 100 µM		> 100 µM		> 100 µM		> 100 µM				> 100 µM		> 100 µM		> 100 µM		> 100 µM	> 100 µM	
